Experimental data as given in ChEMBL document CHEMBL4419178, “Yap1 inhibitors that target the interaction of yap1 with oct4” (2018).
Blank lines part the entries; values can stand above or below the compound they belong to. The source made the active and inactive calls. The rule behind the calls is not given here.

Legend:
[1] = target: Transcriptional coactivator YAP1 (Homo sapiens) (UniProt P46937); experiment: Inhibition of YAP1 (unknown origin) assessed as disruption in YAP1/OCT4 interaction at 10 uM by ELISA relative to control
[2] = target: Transcriptional coactivator YAP1 (Homo sapiens) (UniProt P46937); experiment: Inhibition of YAP1 (unknown origin) assessed as disruption in YAP1/OCT4 interaction at 50 uM by cell based assay
[3] = target: Transcriptional coactivator YAP1 (Homo sapiens) (UniProt P46937); experiment: Inhibition of YAP1 (unknown origin) assessed as disruption in YAP1/OCT4 interaction at 5 uM by ELISA relative to control
NCI-H1650 [4] = experiment: Inhibition of self-renewal capacity in stem-like side-population cells of human NCI-H1650 cells assessed as reduction in number of spheres at 5 to 50 uM incubated for 10 days by sphere formation assay; type: functional, cell-based
NCI-H1650 [5] = experiment: Cytotoxicity in human NCI-H1650 cells assessed as induction of cell killing in presence of cancer associated fibroblasts at 20 to 50 uM incubated for 24 to 48 hrs by cytotracker-red/green dye staining based immunofluorescence microscopy; type: functional
NCI-H1650 [6] = experiment: Inhibition of self-renewal capacity in stem-like side-population cells of human NCI-H1650 cells assessed as reduction in number of spheres at 50 uM incubated for 10 days by sphere formation assay; type: functional, cell-based
[7] = Cytotoxicity in human cancer associated fibroblasts at 20 to 50 uM incubated for 24 to 48 hrs by cytotracker-red/green dye staining based immunofluorescence microscopy
NCI-H1650 [8] = experiment: Inhibition of self-renewal capacity in stem-like side-population cells of human NCI-H1650 cells assessed as reduction in number of spheres at 1 to 20 uM incubated for 10 days by sphere formation assay; type: functional, cell-based
NCI-H1650 [9] = experiment: Inhibition of YAP1 in human NCI-H1650 cells assessed as disruption in YAP1/TEAD2 interaction at 20 to 50 uM incubated for 48 hrs by proximity ligation assay; type: cell-based
[10] = target: Transcriptional coactivator YAP1 (Homo sapiens) (UniProt P46937); experiment: Inhibition of YAP1 in human NCI-H1650 cells assessed as disruption in YAP1/OCT4 interaction at 20 to 50 uM incubated for 48 hrs by proximity ligation assay; type: cell-based
[11] = target: Transcriptional coactivator YAP1 (Homo sapiens) (UniProt P46937); experiment: Inhibition of YAP1 in human A549 cells assessed as disruption in YAP1/OCT4 co-localization at 25 uM incubated for 48 hrs by double immunofluorescence based assay; type: cell-based

Sequence of Transcriptional coactivator YAP1 (Homo sapiens) (P46937 whole entry): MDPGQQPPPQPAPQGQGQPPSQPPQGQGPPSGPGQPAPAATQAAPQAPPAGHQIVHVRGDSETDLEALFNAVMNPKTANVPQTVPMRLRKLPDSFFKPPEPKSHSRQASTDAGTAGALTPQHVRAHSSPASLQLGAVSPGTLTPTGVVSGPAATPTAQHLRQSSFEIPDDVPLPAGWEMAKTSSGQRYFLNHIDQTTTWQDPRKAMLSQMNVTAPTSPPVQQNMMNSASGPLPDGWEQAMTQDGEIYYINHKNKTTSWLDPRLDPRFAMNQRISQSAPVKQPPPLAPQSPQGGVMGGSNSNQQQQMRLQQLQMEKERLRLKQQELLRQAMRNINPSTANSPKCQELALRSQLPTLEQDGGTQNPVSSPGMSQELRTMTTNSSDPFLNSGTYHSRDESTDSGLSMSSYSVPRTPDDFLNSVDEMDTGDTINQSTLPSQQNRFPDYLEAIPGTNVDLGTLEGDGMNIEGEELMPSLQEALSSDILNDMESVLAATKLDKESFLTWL

SMILES: CC1Oc2cc3c(-c4c(O)cc(O)c5c(O)c6c(cc45)OC(C)C(C)C6=O)c(O)cc(O)c3c(O)c2C(=O)C1C (stereo unspecified)
Activity (NCI-H1650 [5]): Active
inhibition (NCI-H1650 [6]): Active
Activity [7]: Non-Toxic

SMILES: COC(=O)[C@H](Cc1ccc(OCc2ccccc2)cc1)NC(=O)CC1CCN(C(=O)CCc2cccc(C)c2)CC1
inhibition (NCI-H1650 [8]): Active

SMILES: O=C1NC2C(O)C(O)C(O)C(O)C2c2cc3c(c(O)c21)OCO3 (stereo unspecified)
inhibition (NCI-H1650 [6]): Active

SMILES: Oc1ccccc1/N=C/c1c(O)ccc2ccccc12
inhibition (NCI-H1650 [9]): Active
inhibition [10]: Active
Activity (NCI-H1650 [5]): Active
inhibition [11]: Active
inhibition (NCI-H1650 [4]): Active
inhibition (NCI-H1650 [6]): Active
Activity [7]: Non-Toxic

SMILES: COC(=O)[C@H](Cc1ccc(OCc2ccccc2)cc1)NC(=O)CC1CCN(C(=O)CCc2ccccc2C)CC1
inhibition (NCI-H1650 [8]): Active

SMILES: CC(C)NC(=O)[C@H](Cc1ccc(OCc2ccccc2)cc1)NC(=O)CC1CCN(C(=O)OC(C)(C)C)CC1
inhibition [2]: 83%
inhibition [3]: 95%

SMILES: COC(=O)[C@H](Cc1ccc(O)cc1)NC(=O)CC1CCN(C(=O)OC(C)(C)C)CC1
inhibition [2]: 70%
inhibition [3]: 78%

SMILES: COc1cc2c(cc1OC)[N+]([O-])=C(c1ccccc1)C2=O
Activity (NCI-H1650 [5]): Active
inhibition [11]: Active
Activity [7]: Non-Toxic

Now from value to compound, other results behind:

inhibition [1]: 57%
inhibition [2]: 70%
SMILES: COC(=O)[C@H](Cc1ccc(OCc2ccccc2)cc1)NC(=O)CC1CCN(Cc2ccccc2)CC1

inhibition [2]: 74%
inhibition [3]: 75%
SMILES: CC(C)(C)OC(=O)N1CCC(CC(=O)N[C@@H](Cc2ccc(OCc3ccccc3)cc2)C(=O)O)CC1

inhibition [2]: > 70%
inhibition [3]: 90%
SMILES: O=C(CC1CCN(C(=O)CCc2ccccc2)CC1)N[C@@H](Cc1ccc(OCc2ccccc2)cc1)C(=O)NC1CCCC1

inhibition [1]: 75%
inhibition [2]: 84%
SMILES: COC(=O)[C@H](Cc1ccc(OCc2ccccc2)cc1)NC(=O)CC1CCN(C(=O)c2ccccc2)CC1
inhibition (NCI-H1650 [4]): Active

inhibition [1]: 80%
inhibition [2]: 65%
SMILES: O=C(CC1CCN(C(=O)CCc2ccccc2)CC1)N[C@@H](Cc1ccc(OCc2ccccc2)cc1)C(=O)NC1CCC1
